Assay results published in patent US10487117B2, “Antimicrobial peptide for nosocomial infections” (priority 2015, dated 2019).
Values joined by “and” are separate entries in the source; they are usually repeats but may differ in a detail not shown here. Equal entries are not always repeated. Residues, ends and D or L forms follow the SMILES beside them.

Tests used:
[1] = system: biofilm-producing microorganism; assay: Antimicrobial and antibiofilm activities of peptides from the design process; format: cell-based; settings: peptide from the design process
Excerpt: Furthermore, even though the peptide has been designed with the RNAse 3 sequence as starting point, the peptide has surprising advantages in respect of the RNase 3 due to the specific deletion and selection of the amino acids conforming the peptide amino acid. […] This is the case of the peptide ECP(7-13)(32-36) with sequence SEQ ID NO: 7.

planktonic P. aeruginosa [2] = format: cell-based, Pseudomonas aeruginosa; settings: planktonic, 4 h
Experimental: The microbial cell viability was then assayed using the BacTiter-Glo™ luminescent kit. […] No cell reduction was detected for the peptide GL-13 even for the maximum concentration assayed (50 μM).
(§1) Bacterial viability was assayed using the BacTiter-Glo™ microbial cell viability kit. Briefly, protein/peptides were dissolved in 10 mM sodium phosphate, 0.1M buffer, pH 7.5, serially diluted from 50 to 0.1 μM and tested in a 96-well microtiter plate containing P. aeruginosa planktonic (OD600˜0.2) or 24 h formed biofilm for 4 h at 37° C. Fifty microliters of BacTiter-Glo™ reagent was added to each well according to the manufacturer's instructions and incubated at room temperature for 15 min. Luminescence was read on a Victor3 plate reader with a 3-s integration time. Fifty percent (ED50) and total inhibitory concentrations were calculated by fitting the data to a dose-response curve.

planktonic P. aeruginosa [3] = assay: Minimum agglutination concentration (MAC) assay; format: cell-based, Pseudomonas aeruginosa; settings: 1 h at room temperature, mean ± SEM
Experimental: Bacterial agglutination of RNase 3 is important for the antimicrobial activity of the protein. Therefore, the peptide capability to agglutinate P. aeruginosa cells was assayed by the minimum agglutination concentration assay (MAC) (Table 3).
Bacterial cells were grown in LB at 37° C. to an OD600=0.2, centrifuged at 5000×g for 2 min and resuspended in 10 mM Tris-HCl buffer, 0.1 M NaCl, pH 7.5. An aliquot of 100 μl of the bacterial suspension was treated with increasing protein/peptide concentrations (from 0.01 to 50 μM) and incubated at room temperature for 1 h. The aggregation behavior was observed by visual inspection and the agglutinating activity is expressed as the minimum agglutinating concentration of the sample tested, as previously described (Torrent M. et al. 2012).

planktonic P. aeruginosa [4] = assay: SYTOX Green membrane permeabilization assay, planktonic; format: cell-based, Pseudomonas aeruginosa; settings: 10% Triton X-100 as maximum reference
Experimental: Further insight into the membrane-permeabilizing effect of the selected AMPs against P. aeruginosa was evaluated by the Sytox Green assay. Local membrane disturbances allow the cell uptake of the fluorescent Sytox Green dye that subsequently stains the cell nucleic acids; the fluorescence increase is registered to monitor the cell membrane permeabilization. Therefore, the half permeabilization action (ED50) was measured, and the total permeabilization activity expressed as a percentage (Table 5). […] On the other hand, WY-12 and CA-M required a 6- to 7-fold greater concentration than RNase 3 to produce half of their permeabilizing effect.
(§2) Membrane permeabilization was followed using the method SYTOX Green Fluorescence membrane permeabilization assay. In the planktonic assay, bacterial cells were grown at 37° C. to an OD600=0.2, centrifuged at 5000×g for 5 min, and resuspended in 1×PBS to an OD600=0.2. An aliquot of 200 μl was then transferred to a microtiter plate. For biofilm assay, 24 h formed P. aeruginosa biofilm in a 96-well microtiter plate were washed three times with sterile PBS. SYTOX Green was added to a final concentration of 1 μM and incubated 15 min in darkness. Changes in the fluorescence were continuously recorded after addition of a serially diluted protein/peptides from 50 to 0.1 μM in a Victor3 plate reader. The peptide concentration required to achieve half of total and total membrane permeabilization achieved after 40 min was estimated from nonlinear regression analysis as previously described (Pulido D. et al. Antimicrob Agents Chemother 2013). A maximum reference value was taken for Triton X-100 at 10%.

[5] = system: pre-established P. aeruginosa biofilm; assay: Biofilm eradication assay, crystal violet staining; format: cell-based, Pseudomonas aeruginosa
Experimental: Following, the biofilm eradication activity was determined (FIG. 1 and Table 6). […] Moreover, the biofilm eradication activity of all the tested reference peptides was well above the maximum concentration tested (50 μM), except for RN3(5-17P22-36) which was able to eradicate the biofilm close to 50 μM.
(§3) Biofilm formation assay was modified from the previously described protocol (Huedo P. et al. 2014). Briefly, overnight cultures of P. aeruginosa were centrifuged at 5000×g for 5 min, washed and adjusted to an OD600=0.1 in tryptic soy medium (TSB). Two hundred microliters of the bacterial suspension were dispensed in each well of a polystyrene 96-well microtiter plate (Greiner Bio-one, France). The plate was incubated at 37° C. on an orbital shaker (30 rpm). The media was exchanged with fresh pre-warmed TSB after 4 h, in order to remove the non-attached bacteria. After 24 h incubation, the formation of biofilm was then evaluated using the crystal violet staining technique (Stepanovic S. et al. 2000). Briefly, the plates were washed three times with PBS, fixed at 60° C. for 1 h, and stained for 15 min with 200 μl of 0.1% crystal violet. After the dye was discarded, plates were rinsed in PBS and allowed to dry for 30 min at 37° C. Crystal violet was dissolved in 250 μl of 95% ethanol for 15 min, and the OD570 of the extracted dye was measured using a Victor3 plate reader (Perkin-Elmer, Waltham, Mass.).
Biofilms were grown as above. Twenty-four hour formed P. aeruginosa biofilm was washed three times with sterile PBS, and rinsed with 10 mM sodium phosphate buffer pH 7.5. Each well was treated with increasing protein/peptide concentrations (from 0.01 to 50 μM) and incubated at 37° C. for 4 h. The biofilm eradication was then evaluated using the crystal violet staining technique (Stepanovic S. et al. 2000). The ability of the antimicrobial peptides to disperse and reduce the biofilm mass of preformed biofilms was calculated. The peptide concentration required to achieve total preformed biofilm eradication after 4 h incubation time was estimated. A maximum reference value was taken for Triton X-100 at 10%. The minimum biofilm eradication concentration (MBEC), defined as the protein/peptide concentration where the 99.9% of the biofilm mass is eradicated was estimated.

[6] = Biofilm cell mortality, BacTiter-Glo luminescent assay; format: cell-based, Pseudomonas aeruginosa; settings: 24 h formed biofilm; 4 h at 37° C.; 10% Triton X-100 as maximum reference; N.D. = not detected at 50 μM; read-out: Biofilm cell mortality (%max)
Experimental: as §1
As a first approach, the biofilm cell viability was monitored using the BacTiter-Glo™ luminescent assay. Therefore, the antimicrobial action of the studied AMPs was determined on already established P. aeruginosa biolfilms (FIG. 1 and Table 6). […] However, for all the active peptides, the concentrations needed to produce an equivalent effect in biofilms were between 2 to 10 times higher than in planktonic cultures. […] At the same time, we applied the crystal violet technique to assess the peptide ability to disperse pre-established P. aeruginosa biofilms.
as §3

[7] = system: established P. aeruginosa biofilms; assay: DiSC3(5) membrane depolarization assay on biofilm; format: cell-based, Pseudomonas aeruginosa; settings: maximum percentage at final incubation time, 10% Triton X-100 reference
Experimental: Membrane depolarization was followed using the method described earlier (Torrent M. et al. 2008). Briefly, bacterial cells were grown at 37° C. to an OD600=0.2, centrifuged at 5000×g for 7 min, washed with 5 mM Hepes at pH 7.2 containing 20 mM glucose, and resuspended in 5 mM Hepes-KOH, 20 mM glucose, and 100 mM KCl at pH 7.2 to an OD600=0.05 and 200 μl were transferred to a microtiter plate for planktonic assays. For biofilm assay, 24 h formed P. aeruginosa biofilm in a 96-well microtiter plate were washed three times with sterile PBS. Afterwards P. aeruginosa biofilms were washed with 5 mM Hepes at pH 7.2 containing 20 mM glucose, and rinsed in 5 mM Hepes-KOH, 20 mM glucose, and 100 mM KCl at pH 7.2. In both cases, DiSC3(5) was added to a final concentration of 0.4 μM and changes in the fluorescence were continuously recorded after addition of peptides at 10 μM in a Victor3 plate reader. A maximum reference value for total depolarization is calculated for Triton X-100 at 10%. Alternatively, changes in the fluorescence were continuously recorded after addition of a serially diluted protein/peptides from 50 to 0.1 μM. The peptide concentration required to achieve half of total and total membrane depolarization after 40 min incubation time was estimated from nonlinear regression analysis as previously described (Torrent M. et al. 2010)
(§4) Thereupon, the antimicrobial mechanism of action of the RNase 3 derived peptide on P. aeruginosa biofilms was further characterized with the depolarization and permeabilization assays. As applied for the P. aeruginosa planktonic culture, the fluorescent DisC3(5) assay was also used here in order to monitor the depolarization activity of the studied protein and peptides against established biofilms. Therefore, we have measured the half depolarization action (ED50), and the total depolarization activity expressed as a percentage (Table 7). […] Similar results were obtained for the Sytox Green permeabilization assay, where the total permeabilization effect was hindered for all the AMPs tested, and between two to ten times higher concentrations were required to achieve half of the biofilm cell permeabilizing effect in comparison to the planktonic cells.

[8] = system: established P. aeruginosa biofilms; assay: SYTOX Green membrane permeabilization assay on biofilm; format: cell-based, Pseudomonas aeruginosa; settings: maximum percentage at final incubation time, 10% Triton X-100 reference
Experimental: as §2, §4

Molecule	antimicrobial and antibiofilm activities [1]	IC50 (planktonic P. aeruginosa [2]) [nM]	MAC (minimum agglutinating activity) (planktonic P. aeruginosa [3])	Permeabilization %max (planktonic P. aeruginosa [4]) [%]	Biofilm eradication (%max) ([5]; 24 h formed biofilm, 4 h at 37° C., 10% Triton X-100 as maximum reference, listed as the peptide of the invention)	biofilm eradication concentration (MBEC) ([5]; total eradication of preformed biofilm, 4 h, max tested 50 μM) [µM]	mortality [6] [%]	Depolarization Mean % ± SEM [7] [%]	Permeabilization Mean % ± SEM [8] [%]
ECP(7-13)(32-36): design-process peptide with sequence SEQ ID NO: 7, lacking the antimicrobial and antibiofilm activities (RAQWFAINYRWR; peptide ECP(7-13)(32-36))	did not display the antimicrobial and antibiofilm activities	–	–	–	–	–	–	–	–
CC[C@H](C)[C@H](NC(=O)[C@H](C)NC(=O)[C@H](CCCNC(=N)N)NC(=O)[C@H](CCSC)NC(=O)[C@H](C)NC(=O)[C@@H](NC(=O)[C@@H](NC(=O)[C@H](CCCNC(=N)N)NC(=O)[C@@H]1CCCN1C(=O)[C@H](CO)NC(=O)[C@@H](NC(=O)[C@H](Cc1c[nH]cn1)NC(=O)[C@H](CCC(N)=O)NC(=O)[C@@H](NC(=O)[C@H](C)NC(=O)[C@H](Cc1ccccc1)NC(=O)[C@H](Cc1c[nH]c2ccccc12)NC(=O)[C@H](CCC(N)=O)NC(=O)[C@H](C)NC(=O)[C@H](CCCNC(=N)N)NC(=O)[C@@H](NC(=O)[C@H](Cc1ccccc1)NC(=O)[C@@H]1CCCN1C(=O)[C@@H](N)CCCNC(=N)N)[C@@H](C)O)[C@@H](C)CC)[C@@H](C)CC)[C@@H](C)O)[C@@H](C)CC)C(=O)N[C@@H](CC(N)=O)C(=O)N[C@@H](CC(N)=O)C(=O)N[C@@H](Cc1ccc(O)cc1)C(=O)N[C@@H](CCCNC(=N)N)C(=O)N[C@@H](Cc1c[nH]c2ccccc12)C(=O)N[C@@H](CCCNC(=N)N)C(N)=O [RN3(5-17P22-36)] (H-RPFTRAQWFAIQHISPRTIAMRAINNYRWR-NH2; N-terminus assumed)	–	1250 ± 100	1.5 µM and 1.50 ± 0.08 µM	63.63 ± 1.42	totally disperse the cell community layer	~50	96.4 ± 2.41	73.51 ± 1.94	64.26 ± 5.44
